In PubChem BioAssay (NCI):
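Interpolation was linear, between the two tested concentrations surrounding the appropriate level; five concentrations were tested over 48 hours in 96-well plates. GI50 is the concentration that inhibits growth by half. TGI is the concentration that stops growth completely.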

Legend:
Assay in all cases: inhibition of tumour cell growth, NCI panel, 48 h
TK-10 renal = test system: TK-10 renal
ACHN renal = test system: ACHN renal
CAKI-1 renal = test system: CAKI-1 renal
HS 578T breast = test system: HS 578T breast
SF-268 CNS = test system: SF-268 CNS
UACC-257 melanoma = test system: UACC-257 melanoma
HCC-2998 colon = test system: HCC-2998 colon
OVCAR-3 ovarian = test system: OVCAR-3 ovarian
BT-549 breast = test system: BT-549 breast
MOLT-4 leukemia = test system: MOLT-4 leukemia
HL-60(TB) leukemia = test system: HL-60(TB) leukemia
SW-620 colon = test system: SW-620 colon
SN12C renal = test system: SN12C renal
SK-OV-3 ovarian = test system: SK-OV-3 ovarian
OVCAR-8 ovarian = test system: OVCAR-8 ovarian
U251 CNS = test system: U251 CNS
SF-539 CNS = test system: SF-539 CNS
NCI-H226 lung = test system: NCI-H226 lung
CCRF-CEM leukemia = test system: CCRF-CEM leukemia
PC-3 prostate = test system: PC-3 prostate
OVCAR-4 ovarian = test system: OVCAR-4 ovarian
DU-145 prostate = test system: DU-145 prostate
OVCAR-5 ovarian = test system: OVCAR-5 ovarian
786-0 renal = test system: 786-0 renal
RPMI-8226 leukemia = test system: RPMI-8226 leukemia
SF-295 CNS = test system: SF-295 CNS
COLO 205 colon = test system: COLO 205 colon
MDA-MB-435 = test system: MDA-MB-435
RXF 393 renal = test system: RXF 393 renal
NCI-H23 lung = test system: NCI-H23 lung
MALME-3M melanoma = test system: MALME-3M melanoma
MCF7 breast = test system: MCF7 breast
LOX IMVI melanoma = test system: LOX IMVI melanoma
UO-31 renal = test system: UO-31 renal
NCI-H460 lung = test system: NCI-H460 lung
M14 melanoma = test system: M14 melanoma
HCT-15 colon = test system: HCT-15 colon
IGROV1 ovarian = test system: IGROV1 ovarian
SK-MEL-28 melanoma = test system: SK-MEL-28 melanoma
HT29 colon = test system: HT29 colon
T-47D breast = test system: T-47D breast
MDA-MB-231 breast = test system: MDA-MB-231 breast
K-562 leukemia = test system: K-562 leukemia
HOP-92 NSCLC = test system: HOP-92 NSCLC
EKVX NSCLC = test system: EKVX NSCLC
SNB-19 CNS = test system: SNB-19 CNS
SK-MEL-2 melanoma = test system: SK-MEL-2 melanoma
UACC-62 melanoma = test system: UACC-62 melanoma
HCT-116 colon = test system: HCT-116 colon
NCI-H522 lung = test system: NCI-H522 lung
NCI/ADR-RES ovarian = test system: NCI/ADR-RES ovarian
KM12 colon = test system: KM12 colon
A498 renal = test system: A498 renal
SNB-75 CNS = test system: SNB-75 CNS
A549 NSCLC = test system: A549 NSCLC
HOP-62 NSCLC = test system: HOP-62 NSCLC
SK-MEL-5 melanoma = test system: SK-MEL-5 melanoma
SR leukemia = test system: SR leukemia

NC(=O)c1c(NC(=O)c2ccc(C3CCCCC3)cc2)sc2c1CCC(=O)C2
GI50 (TK-10 renal): 373 nM | TGI (TK-10 renal): 2300 nM | GI50 (ACHN renal): 164 nM | TGI (ACHN renal): 598 nM | GI50 (CAKI-1 renal): 248 nM | TGI (CAKI-1 renal): 1470 nM | GI50 (HS 578T breast): 383 nM | TGI (HS 578T breast): 5710 nM | GI50 (SF-268 CNS): 532 nM | TGI (SF-268 CNS): 3460 nM | GI50 (UACC-257 melanoma): 725 nM | TGI (UACC-257 melanoma): 3230 nM | GI50 (HCC-2998 colon): 1100 nM | TGI (HCC-2998 colon): 5410 nM | GI50 (OVCAR-3 ovarian): 389 nM | TGI (OVCAR-3 ovarian): 2620 nM | GI50 (BT-549 breast): 283 nM | TGI (BT-549 breast): 1390 nM | GI50 (MOLT-4 leukemia): 357 nM | TGI (MOLT-4 leukemia): > 22400 nM | GI50 (HL-60(TB) leukemia): 307 nM | TGI (HL-60(TB) leukemia): > 30800 nM | GI50 (SW-620 colon): 142 nM | TGI (SW-620 colon): 1660 nM | GI50 (SN12C renal): 438 nM | TGI (SN12C renal): 2830 nM | GI50 (SK-OV-3 ovarian): 1180 nM | TGI (SK-OV-3 ovarian): 5890 nM | GI50 (OVCAR-8 ovarian): 380 nM | TGI (OVCAR-8 ovarian): > 20200 nM | GI50 (U251 CNS): 246 nM | TGI (U251 CNS): 1620 nM | GI50 (SF-539 CNS): 211 nM | TGI (SF-539 CNS): 826 nM | GI50 (NCI-H226 lung): 705 nM | TGI (NCI-H226 lung): 2610 nM | GI50 (CCRF-CEM leukemia): 142 nM | GI50 (PC-3 prostate): 130 nM | TGI (PC-3 prostate): 1590 nM | GI50 (OVCAR-4 ovarian): 377 nM | TGI (OVCAR-4 ovarian): 1710 nM | GI50 (DU-145 prostate): 1730 nM | TGI (DU-145 prostate): > 100000 nM | GI50 (OVCAR-5 ovarian): 402 nM | TGI (OVCAR-5 ovarian): 1980 nM | GI50 (786-0 renal): 663 nM | TGI (786-0 renal): 2870 nM | GI50 (RPMI-8226 leukemia): 135 nM | TGI (RPMI-8226 leukemia): 596 nM | GI50 (SF-295 CNS): 681 nM | TGI (SF-295 CNS): 2500 nM | GI50 (COLO 205 colon): 208 nM | TGI (COLO 205 colon): 650 nM | GI50 (MDA-MB-435): 611 nM | TGI (MDA-MB-435): 2170 nM | GI50 (RXF 393 renal): 301 nM | TGI (RXF 393 renal): 1190 nM | GI50 (NCI-H23 lung): 314 nM | TGI (NCI-H23 lung): 4340 nM | GI50 (MALME-3M melanoma): 314 nM | TGI (MALME-3M melanoma): 1190 nM | GI50 (MCF7 breast): 292 nM | TGI (MCF7 breast): 2530 nM | GI50 (LOX IMVI melanoma): 186 nM | TGI (LOX IMVI melanoma): 1010 nM | GI50 (UO-31 renal): 177 nM | TGI (UO-31 renal): 690 nM | GI50 (NCI-H460 lung): 645 nM | TGI (NCI-H460 lung): 3640 nM | GI50 (M14 melanoma): 371 nM | TGI (M14 melanoma): 1870 nM | GI50 (HCT-15 colon): 155 nM | TGI (HCT-15 colon): 1260 nM | GI50 (IGROV1 ovarian): 434 nM | TGI (IGROV1 ovarian): 2030 nM | GI50 (SK-MEL-28 melanoma): 509 nM | TGI (SK-MEL-28 melanoma): 2150 nM | GI50 (HT29 colon): 268 nM | TGI (HT29 colon): 1810 nM | GI50 (T-47D breast): 193 nM | TGI (T-47D breast): 2340 nM | GI50 (MDA-MB-231 breast): 384 nM | TGI (MDA-MB-231 breast): 1750 nM | GI50 (K-562 leukemia): 122 nM | TGI (K-562 leukemia): > 100000 nM | GI50 (HOP-92 NSCLC): 246 nM | TGI (HOP-92 NSCLC): 1040 nM | GI50 (EKVX NSCLC): 502 nM | TGI (EKVX NSCLC): 3210 nM | GI50 (SNB-19 CNS): 426 nM | TGI (SNB-19 CNS): 3010 nM | GI50 (SK-MEL-2 melanoma): 980 nM | TGI (SK-MEL-2 melanoma): 3530 nM | GI50 (UACC-62 melanoma): 276 nM | TGI (UACC-62 melanoma): 1430 nM | GI50 (HCT-116 colon): 108 nM | TGI (HCT-116 colon): 1300 nM | GI50 (NCI-H522 lung): 227 nM | TGI (NCI-H522 lung): 1450 nM | GI50 (NCI/ADR-RES ovarian): 360 nM | TGI (NCI/ADR-RES ovarian): 5040 nM | GI50 (KM12 colon): 349 nM | TGI (KM12 colon): 5260 nM | GI50 (A498 renal): 1990 nM | TGI (A498 renal): 5840 nM | GI50 (SNB-75 CNS): 1390 nM | TGI (SNB-75 CNS): 3420 nM | GI50 (A549 NSCLC): 419 nM | TGI (A549 NSCLC): 6080 nM | GI50 (HOP-62 NSCLC): 1480 nM | TGI (HOP-62 NSCLC): 24100 nM | GI50 (SK-MEL-5 melanoma): 630 nM | TGI (SK-MEL-5 melanoma): 1770 nM | GI50 (SR leukemia): 108 nM
